Key:
[1] = Chemical stability, qualitative stress tests (HPLC, LC-MS); format: physicochemical; conditions: solid, aqueous solution, PBS, 7 days each at 50, 70 and 90° C.
Experimental: The following HPLC methodology was established for the analysis of the exemplary compounds of the invention.
The method involves detection by UV at a wavelength of 420 nm, which is very specific for these compounds. In order to monitor impurities not related to the porphyrin structure (and therefore not absorbing at 420 nm) UV spectra of the whole chromatograms were also recorded between 200 nm and 700 nm by DAD (diode array detector) in certain experiments. • Column: Zorbax Phenyl, 250×4.6 mm, 5 µm • Eluent A: 1.5 g sodium dodecylsulfate+1 mL formic acid in 1000 mL water • Eluent B: 1.5 g sodium dodecylsulfate+1 mL formic acid in 200 mL water+800 mL tetrahydrofurane • Gradient:
• Flow rate: 0.4 mL/min • Detection: 420 nm • Column temperature: 25° C. • Injection volume: 10 μl • Solutions: Porphyrin derivatives were dissolved in eluent A to give a final concentration of approximately 0.3 mg/ml.
Qualitative stress tests were undertaken on the exemplary compounds of the invention. Analysis was undertaken by HPLC & LC-MS. The compounds were stress tested in solid form, in an aqueous solution and a solution made up in phosphate-buffered saline buffer. The samples were initially incubated for 7 days at 50° C. and a sample removed for testing. The samples were then incubated for a further 7 days at 70° C., samples removed as before and the samples incubated further for 7 days at 90° C. HPLC analysis of freshly prepared solutions was undertaken and compared to the samples after 7, 14 and 21 days incubation. A visual comparison of the chromatograms was then undertaken and the content of the main products and by-products as area percentage values determined (see FIG. 4).

[2] = test system: S. aureus SH1000 cold cultures; test: Time-kill against cold cultures (4° C.); format: cell-based, Staphylococcus aureus; conditions: for viability / bactericidal activity in time-kill (in words): cold culture held at 4° C. for 5 hours, agents at 4×MIC
Experimental: Methods: MICs were determined for planktonic cultures by broth microdilution according to British Society for Antimicrobial Chemotherapy (BSAC) guidelines. Biofilm MICs (bMIC) and minimum biofilm eradication concentrations (MBECs) were determined using the Calgary biofilm device. The effect of Compound 10 on the viability of cold culture cells was determined by growing S. aureus SH1000 to early exponential phase at 37° C. and resuspending the cells in pre-chilled media, where they were maintained in the presence and absence of Compound 10 and control agents. The effect of Compound 10 on slow growing cells expressing the stringent response was also determined by growing cultures to early log phase and the stringent response induced by the addition of the isoleucyl-tRNA synthetase inhibitor mupirocin. Compound 10 and control agents were then added and samples recovered for viable cell determinations.
The effect of XF drugs on the viability of cold culture cells was determined by growing S. aureus SH1000 to early exponential phase at 37° C., harvesting the cells by centrifugation (5,000×g, 10 min.) and resuspending them in pre-chilled media where they were maintained in the presence and absence of XF drugs and control agents for 5 hours. […] (FIG. 11).
The anti-staphylococcal activities of Compound 10, Compound 12 and a range of comparator agents against slow-growing cultures of Staphylococcus aureus were studied using standard time-kill methodology (Oliva et al. 2003, Hobbs et al. 2008). Staphylococcus aureus SH1000 cultures were grown to early exponential phase (OD600 nm of 0.2) in Mueller-Hinton broth (MHB) before being exposed to antibacterial agents at 4×MIC. An untreated culture served as the negative control. The experiments were undertaken in triplicate.
Cold cultures were prepared by growing SH1000 cells to early exponential phase (OD600 nm of 0.2) at 37° C. Cultures were then centrifuged and the cell pellet was resuspended in MHB pre-chilled to 4° C. The killing kinetics of antimicrobial agents were studied as described in the section above, with the exception that cultures were maintained at 4° C. over the 5 hour sampling period.

[3] = test system: S. aureus SH1000 stationary phase cultures; test: Time-kill against stationary phase cultures; format: cell-based, Staphylococcus aureus; conditions: early, mid and late stationary phase (24, 48, 72 hours), 10^8 bacteria/mL in spent medium
Experimental: The anti-staphylococcal activities of Compound 10, Compound 12 and a range of comparator agents against stationary phase cultures of Staphylococcus aureus were studied using standard time-kill methodology (Oliva et al., 2003, Hobbs et al., 2008). A growth curve was constructed to identify when SH1000 cultures enter and leave stationary phase. 50 mL of Mueller-Hinton broth (MHB) was inoculated with 500 μL of Staphylococcus aureus SH1000 overnight culture and was maintained at 37° C. with agitation for 8 days. The culture turbidity at OD600 nm was measured at regular intervals using a Jenway 6300 spectrophotometer with a 1 cm light path (Jenway, Essex, UK). Staphylococcus aureus SH1000 cultures were grown to early, mid and late stationary phase at 37° C. by incubation for 24, 48 and 72 hours respectively. Cultures were centrifuged, the supernatant was removed, and then a portion of the cell pellet was resuspended in the counterpart supernatant to an OD600 nm of 0.2 (10^8 bacteria/mL). A time-kill assay was then performed on these stationary phase suspensions to study the effects of antimicrobial agents on bacterial cell viability. An untreated culture served as the negative control. The experiments were undertaken in triplicate. […]

SMILES | Chemical stability under stress [1] | drop in viability ([2]; cold culture (4° C.), 4×MIC, within 1 hour) | viability / bactericidal activity in time-kill (in words) [2] | bactericidal activity in time-kill (in words) [3]
C[N+](C)(C)CCCOc1ccc(-c2c3nc(cc4ccc([nH]4)c(-c4ccc(OCCC[N+](C)(C)C)cc4)c4nc(cc5ccc2[nH]5)C=C4)C=C3)cc1.[Cl-].[Cl-] [Compound 10, 5,15-bis-[4-(3-Trimethylammonio-propyloxy)-phenyl]-porphyrin dichloride] | good stability | 5 log | retained potent bactericidal activity | retained potent bactericidal activity
C[N+](C)(C)CCCOc1cccc(-c2c3nc(cc4ccc([nH]4)c(-c4cccc(OCCC[N+](C)(C)C)c4)c4nc(cc5ccc2[nH]5)C=C4)C=C3)c1.[Cl-].[Cl-] [Compound 12, 5,15-bis-[3-(3-Trimethylammonio-propyloxy)-phenyl]-porphyrin dichloride] | good stability |  | retained potent bactericidal activity | retained potent bactericidal activity

Source: patent US9326511B2, “Methods of inhibiting microbial biofilms” (priority 2008, dated 2016)
